Biological target: mushroom tyrosinase
Test: mushroom tyrosinase (Sigma) enzyme inhibition assay
Assay type: biochemical

## CC(=O)c1ccc(N2C(=S)NC(C)(C)C=C2C)cc1 [compound 4, 1-(4-(4,4,6-trimethyl-2-thioxo-3,4-dihydropyrimidin-1(2H)-yl)phenyl)ethan-1-one]
  IC50: 1.98 µM

From article PMC9658835, “Acetophenone-Based 3,4-Dihydropyrimidine-2(1H)-Thione as Potential Inhibitor of Tyrosinase and Ribonucleotide Reductase: Facile Synthesis, Crystal Structure, In-Vitro and In-Silico Investigations” (International Journal of Molecular Sciences, 2022)
